{"source": "patent US5776912A", "about": "“Lipophilic oligosaccharide antibiotic compositions” (Schering Corporation, priority 1996, dated 1998)", "key": {"[1]": {"test_system": "methicillin-resistant staphylococci", "type": "cell-based"}, "[2]": {"test_system": "methicillin-susceptible staphylococci", "experiment": "Agar dilution MIC, methicillin-susceptible staphylococci", "type": "cell-based"}, "Enterococcus faecalis": {"test_system": "Enterococcus faecalis", "experiment": "Agar dilution MIC, Enterococcus faecalis", "type": "cell-based", "settings": "printed for E. faecalis and E. faecium together"}, "Enterococcus faecium": {"test_system": "Enterococcus faecium", "experiment": "Agar dilution MIC, Enterococcus faecium", "type": "cell-based", "settings": "printed for E. faecalis and E. faecium together"}, "[3]": {"test_system": "enterococci resistant to vancomycin", "experiment": "microbe, parasite or virus in culture", "type": "cell-based"}, "[4]": {"test_system": "various strains of streptococci", "experiment": "Agar dilution MIC, streptococci", "type": "cell-based"}, "Borrelia burgdorferi": {"test_system": "Borrelia burgdorferi", "experiment": "MIC, Borrelia burgdorferi", "type": "cell-based"}, "Legionella pneumophila": {"test_system": "Legionella pneumophila", "type": "cell-based"}, "L. longbeacheae": {"test_system": "L. longbeacheae", "experiment": "MIC, L. longbeacheae", "type": "cell-based"}, "gram-negative bacteria": {"test_system": "gram-negative bacteria", "experiment": "Agar dilution MIC, gram-negative bacteria", "type": "cell-based"}, "Trichomonas vaginalis": {"test_system": "Trichomonas vaginalis", "experiment": "MIC, Trichomonas vaginalis", "type": "cell-based"}, "Mycoplasma sp.": {"test_system": "Mycoplasma sp.", "experiment": "MIC, Mycoplasma sp.", "type": "cell-based"}, "bacteria": {"test_system": "bacteria", "type": "cell-based"}, "[5]": {"test_system": "various clinical and laboratory strains of staphylococci", "experiment": "Bactericidal activity, staphylococci", "type": "cell-based"}, "S. aureus 85111205": {"test_system": "S. aureus 85111205", "experiment": "Mouse protection model, PD50 (Table 4), S. aureus 85111205", "type": "in vivo, Staphylococcus aureus (infection in CF1 mice)", "settings": "Staphylococcus aureus, 85111205, iv, read-out: PD50", "excerpt": "(§1) PD 50 Valves Showing Efficacy of Composition Containing the\n(§2) Compound of Formula III Against Bacterial Infections^1 in CF1\n(§3) ^1 Injections were by IP route\n(§4) ^2 CFI mice are Charles River CFI, ca 20 g while male mice\n(§5) ^4 PD50 Dosing routes for drugs: IV for A, B and C; SC for D in\n(§6) ^5. Multiple of one LD100 (lethal dose to kill 100% of animals) of\n(§7) organism given to mice. (Measure of severity of the infection.)\n(§8) See Table 4 for PD50 values for the compositions of the compound of formula III including a preferred composition of the present invention (Drug B) compared to those for vancomycin (Drug C) and amikacin (drug D)."}, "S. aureus 78100502": {"test_system": "S. aureus 78100502", "experiment": "Mouse protection model, PD50 (Table 4), S. aureus 78100502", "type": "in vivo, Staphylococcus aureus (infection in CF1 mice)", "settings": "Staphylococcus aureus, drug IV, 20 × LD, 2.2 × 10^8 CFU/mouse IP", "excerpt": "as §1, §2, §3, §4, §5, §6, §7, §8"}, "E. faecalis 88032810": {"test_system": "E. faecalis 88032810", "experiment": "Mouse protection model, PD50 (Table 4), E. faecalis 88032810", "type": "in vivo, Enterococcus faecalis (infection in CF1 mice)", "settings": "read-out: PD50", "excerpt": "as §1, §2, §3, §4, §5, §6, §7, §8"}, "[6]": {"test_system": "E. faecalis 91031103 (Vancomycin resistant)", "experiment": "Mouse protection model, PD50 (Table 4), vancomycin resistant E. faecalis 91031103", "type": "in vivo, Enterococcus faecalis (infection in CF1 mice)", "settings": "Enterococcus faecalis, read-out: PD50", "excerpt": "as §1, §2, §3, §4, §5, §6, §7, §8"}, "[7]": {"experiment": "pH of aqueous solutions formed with bases", "type": "physicochemical"}, "[8]": {"experiment": "Formation of aqueous solutions", "type": "physicochemical", "settings": "in water"}, "[9]": {"settings": "agar dilution, Mueller-Hinton agar"}}, "note": "Counter-ions that a name gives are not always drawn. Like-named read-outs stand apart in the source and are kept apart here.", "data": [{"molecule": "56-deacetyl-57-demethyl-45-O-de(2-methyl-1 -oxopropyl)-12-O-(2,3,6-trideoxy-3-C-methyl-4-O-methyl-3-nitro-α-L-arabino-hexopyransoyl)-flambamycin 56-(2,4-dihydroxy-6-methylbenzoate) [compound of Formula III]", "values": [{"measurement": "GMM (geometric mean MIC)", "setting": "[1]; [9]", "value": 0.1, "unit": "µg/mL"}, {"measurement": "potency relative to vancomycin", "setting": "[1]; more potent than vancomycin", "value": 2, "unit": "fold"}, {"measurement": "GMM (geometric mean MIC)", "setting": "[2]; [9]", "value": 0.5, "unit": "µg/mL"}, {"measurement": "potency relative to vancomycin", "setting": "[2]; more potent than vancomycin", "value": 2, "unit": "fold"}, {"measurement": "GMM (geometric mean MIC)", "setting": "Enterococcus faecalis", "value": 0.49, "unit": "µg/mL"}, {"measurement": "GMM (geometric mean MIC)", "setting": "Enterococcus faecium", "value": 0.49, "unit": "µg/mL"}, {"measurement": "activity (in words)", "setting": "[3]; enterococci resistant to vancomycin", "value": "good activity"}, {"measurement": "MICs", "setting": "[4]", "value": "< 0.5", "unit": "µg/mL"}, {"measurement": "MICs", "setting": "Borrelia burgdorferi", "value": "< 0.49", "unit": "µg/mL"}, {"measurement": "MICs", "setting": "Legionella pneumophila", "value": 2.5, "unit": "µg/mL"}, {"measurement": "MICs", "setting": "L. longbeacheae", "value": 2.5, "unit": "µg/mL"}, {"measurement": "GMM (geometric mean MIC)", "setting": "gram-negative bacteria", "value": "> 760", "unit": "µg/mL"}, {"measurement": "MICs", "setting": "Trichomonas vaginalis", "value": "> 192", "unit": "µg/mL"}, {"measurement": "MICs", "setting": "Mycoplasma sp.", "value": 200, "unit": "µg/mL"}, {"measurement": "cross resistance with other antibiotics", "setting": "bacteria", "value": "No cross resistance with other antibiotics was observed"}, {"measurement": "bactericidal activity", "setting": "[5]", "value": "moderate bactericidal activity"}]}, {"molecule": "CN[C@H](CC(C)C)C(=O)N[C@H]1C(=O)N[C@@H](CC(N)=O)C(=O)N[C@H]2C(=O)N[C@H]3C(=O)N[C@H](C(=O)N[C@H](C(=O)O)c4cc(O)cc(O)c4-c4cc3ccc4O)[C@H](O)c3ccc(c(Cl)c3)Oc3cc2cc(c3O[C@@H]2O[C@H](CO)[C@@H](O)[C@H](O)[C@H]2O[C@H]2C[C@](C)(N)[C@H](O)[C@H](C)O2)Oc2ccc(cc2Cl)[C@H]1O", "note": "[Drug C, Vancomycin HCl]", "values": [{"measurement": "ED50", "setting": "S. aureus 85111205", "value": 26, "unit": "mg/kg"}, {"measurement": "ED50", "setting": "S. aureus 78100502", "value": 6, "unit": "mg/kg"}, {"measurement": "ED50", "setting": "E. faecalis 88032810; Enterococcus faecalis, 88032810, iv", "value": 10, "unit": "mg/kg"}, {"measurement": "ED50", "setting": "[6]; iv", "value": 100, "unit": "mg/kg"}, {"measurement": "MIC", "setting": "[3]; read-out: MICs", "value": "> 128", "unit": "µg/mL"}]}, {"molecule": "NCC[C@H](O)C(=O)N[C@@H]1C[C@H](N)[C@@H](O[C@H]2O[C@H](CN)[C@@H](O)[C@H](O)[C@H]2O)[C@H](O)[C@H]1O[C@H]1O[C@H](CO)[C@@H](O)[C@H](N)[C@H]1O", "note": "[Drug D, Amikacin]", "values": [{"measurement": "ED50", "setting": "E. faecalis 88032810; Enterococcus faecalis, 88032810, drug SC, 10 × LD, 9.7 × 10^8 CFU/mouse IP", "value": 115, "unit": "mg/kg"}, {"measurement": "ED50", "setting": "[6]; drug SC, 1.7 × LD, 1.5 × 10^9 CFU/mouse IP", "value": 49, "unit": "mg/kg"}]}, {"molecule": "NCCCC[C@H](N)C(=O)O", "note": "[Lysine]", "values": [{"measurement": "pH of aqueous solution", "setting": "[7]", "value": "less than 9.3"}]}, {"molecule": "[Ba+2].[OH-].[OH-]", "note": "[barium hydroxide]", "values": [{"measurement": "formation of aqueous solution", "setting": "[8]", "value": "did not form aqueous solutions"}]}, {"molecule": "[Ca+2].[OH-].[OH-]", "note": "[calcium hydroxide]", "values": [{"measurement": "formation of aqueous solution", "setting": "[8]", "value": "did not form aqueous solutions"}]}]}
